Source: ChEMBL document CHEMBL5252548, “A review on flavonoid-based scaffolds as multi-target-directed ligands (MTDLs) for Alzheimer's disease” (Eur J Med Chem, 2018)

How the values were obtained:
[1] = biological target: T1, Amine oxidase [flavin-containing] B (Homo sapiens, UniProt P27338); assay: Inhibition of human MAO-B
T1 sequence (P27338 whole entry): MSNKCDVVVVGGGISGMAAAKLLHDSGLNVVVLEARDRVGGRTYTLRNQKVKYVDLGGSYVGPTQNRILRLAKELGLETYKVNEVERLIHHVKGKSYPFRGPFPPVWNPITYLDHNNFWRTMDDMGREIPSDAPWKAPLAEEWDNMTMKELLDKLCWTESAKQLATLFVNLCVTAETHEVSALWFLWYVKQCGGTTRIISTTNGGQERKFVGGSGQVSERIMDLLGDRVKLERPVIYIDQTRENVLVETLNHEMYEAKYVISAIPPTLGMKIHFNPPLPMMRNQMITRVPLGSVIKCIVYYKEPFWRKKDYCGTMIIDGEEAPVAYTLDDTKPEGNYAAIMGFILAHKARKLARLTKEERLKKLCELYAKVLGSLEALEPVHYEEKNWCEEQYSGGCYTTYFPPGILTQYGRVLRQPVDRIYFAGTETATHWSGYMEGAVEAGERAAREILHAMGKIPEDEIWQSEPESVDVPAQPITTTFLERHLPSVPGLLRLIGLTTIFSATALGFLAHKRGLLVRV

Acetylcholinesterase [2] = biological target: T2, Acetylcholinesterase (Homo sapiens, UniProt P22303); assay: Inhibition of AChE (unknown origin)
T2 sequence (P22303 whole entry): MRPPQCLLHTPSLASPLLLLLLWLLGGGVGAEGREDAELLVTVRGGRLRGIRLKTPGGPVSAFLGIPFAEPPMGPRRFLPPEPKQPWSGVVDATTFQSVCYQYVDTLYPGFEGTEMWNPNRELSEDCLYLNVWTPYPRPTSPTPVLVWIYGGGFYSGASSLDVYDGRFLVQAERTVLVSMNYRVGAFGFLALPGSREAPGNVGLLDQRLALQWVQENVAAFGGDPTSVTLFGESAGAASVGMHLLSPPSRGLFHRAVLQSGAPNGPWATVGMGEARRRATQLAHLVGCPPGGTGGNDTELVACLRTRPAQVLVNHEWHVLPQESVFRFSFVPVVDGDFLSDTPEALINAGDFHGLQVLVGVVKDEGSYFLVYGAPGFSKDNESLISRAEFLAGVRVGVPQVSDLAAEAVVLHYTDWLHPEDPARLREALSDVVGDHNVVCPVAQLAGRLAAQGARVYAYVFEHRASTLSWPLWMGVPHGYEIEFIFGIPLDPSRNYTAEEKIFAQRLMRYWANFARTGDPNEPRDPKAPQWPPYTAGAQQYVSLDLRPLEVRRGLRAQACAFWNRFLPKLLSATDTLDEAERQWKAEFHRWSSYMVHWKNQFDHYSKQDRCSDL

Cholinesterase [3] = biological target: T3, Cholinesterase (Homo sapiens, UniProt P06276); assay: Inhibition of BuChE (unknown origin)
T3 sequence (P06276 whole entry): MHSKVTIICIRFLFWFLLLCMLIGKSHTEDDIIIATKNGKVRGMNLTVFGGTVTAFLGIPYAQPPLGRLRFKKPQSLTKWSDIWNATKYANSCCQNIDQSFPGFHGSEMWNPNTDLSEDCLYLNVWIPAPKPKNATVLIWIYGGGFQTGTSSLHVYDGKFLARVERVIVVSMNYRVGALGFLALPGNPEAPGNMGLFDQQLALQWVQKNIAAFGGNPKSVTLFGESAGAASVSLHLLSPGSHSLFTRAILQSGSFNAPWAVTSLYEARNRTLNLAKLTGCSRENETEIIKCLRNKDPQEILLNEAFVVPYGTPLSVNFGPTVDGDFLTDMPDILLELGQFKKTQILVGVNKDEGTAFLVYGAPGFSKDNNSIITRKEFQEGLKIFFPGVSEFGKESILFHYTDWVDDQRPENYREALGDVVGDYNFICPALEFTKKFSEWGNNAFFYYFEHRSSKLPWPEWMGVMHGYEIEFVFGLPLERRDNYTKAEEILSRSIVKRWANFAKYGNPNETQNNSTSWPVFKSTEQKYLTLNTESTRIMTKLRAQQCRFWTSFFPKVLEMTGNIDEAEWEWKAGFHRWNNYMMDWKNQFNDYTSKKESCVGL

[4] = Antioxidant activity of compound assessed as trolox equivalent preincubated for 15 mins followed by AAPH addition and measured for 90 mins by ORAC-FL assay; format: functional; details: time 105.0 min
[5] = biological target: T4, Amyloid-beta precursor protein (Homo sapiens, UniProt P05067); assay: Inhibition of amyloid beta (1 to 42) (unknown origin) fibril formation incubated for 1 hr by thioflavin-T fluorescence assay
T4 sequence (P05067 whole entry): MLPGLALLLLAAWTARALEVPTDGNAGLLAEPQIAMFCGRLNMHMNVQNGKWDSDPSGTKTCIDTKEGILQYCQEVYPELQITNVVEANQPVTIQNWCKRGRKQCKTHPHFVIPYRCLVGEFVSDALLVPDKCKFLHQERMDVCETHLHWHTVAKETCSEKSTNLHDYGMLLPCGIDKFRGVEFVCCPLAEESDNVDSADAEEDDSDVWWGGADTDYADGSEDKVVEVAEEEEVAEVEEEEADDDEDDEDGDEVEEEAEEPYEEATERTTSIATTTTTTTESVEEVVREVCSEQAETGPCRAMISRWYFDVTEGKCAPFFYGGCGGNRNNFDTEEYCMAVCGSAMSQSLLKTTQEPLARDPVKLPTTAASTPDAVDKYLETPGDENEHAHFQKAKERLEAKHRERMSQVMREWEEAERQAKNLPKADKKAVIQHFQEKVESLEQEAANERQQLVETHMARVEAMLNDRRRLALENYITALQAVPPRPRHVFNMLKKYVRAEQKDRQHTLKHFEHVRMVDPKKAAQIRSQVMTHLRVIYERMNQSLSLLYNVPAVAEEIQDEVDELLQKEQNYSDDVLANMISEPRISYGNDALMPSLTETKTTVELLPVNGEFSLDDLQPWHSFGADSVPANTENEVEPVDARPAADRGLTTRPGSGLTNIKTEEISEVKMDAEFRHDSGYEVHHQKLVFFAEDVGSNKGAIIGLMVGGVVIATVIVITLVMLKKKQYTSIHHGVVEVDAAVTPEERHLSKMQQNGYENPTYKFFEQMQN

[6] = biological target: T4, Amyloid-beta precursor protein; assay: Inhibition of amyloid beta (unknown origin) aggregation
SH-SY5Y [7] = assay: Neuroprotective activity against amyloid beta treated human SH-SY5Y cells at 1 nM relative to control; format: functional
[8] = biological target: T1, Amine oxidase [flavin-containing] B; assay: Inhibition of MAO-B (unknown origin)
Acetylcholinesterase [9] = biological target: T2, Acetylcholinesterase; assay: Inhibition of AChE (unknown origin) assessed as inhibition constant
Mus musculus [10] = assay: Anti-alzheimer activity in APP/PS1 mouse model assessed as reduction in cerebral levels of insoluble amyloid beta (1 to 40) at 40 mg/kg, po administered via oral gavage once a day for 12 weeks relative to control; format: functional; set-up: scale not given: the % may be the effect or the level left
Acetylcholinesterase [11] = biological target: T2, Acetylcholinesterase; assay: Inhibition of human recombinant AChE preincubated for 20 mins followed by substrate addition by Ellman's method
Cholinesterase [12] = biological target: T3, Cholinesterase; assay: Inhibition of human serum BuChE preincubated for 20 mins followed by substrate addition by Ellman's method; format: cell-free
[13] = biological target: T4, Amyloid-beta precursor protein; assay: Inhibition of self-induced amyloid beta (unknown origin) aggregation relative to control; details: concentration not given here
[14] = biological target: T4, Amyloid-beta precursor protein; assay: Inhibition of self-induced amyloid beta (unknown origin) aggregation
SH-SY5Y [15] = assay: Neuroprotective activity against human SH-SY5Y cells assessed as increase in cell viability at 25 uM relative to control; format: functional
Cholinesterase [16] = biological target: T3, Cholinesterase; assay: Inhibition of BuChE (unknown origin) relative to control; details: concentration not given here
HepG2 = assay: Cytotoxicity against human HepG2 cells assessed as reduction in cell viability at 10 uM relative to control; format: functional
[17] = biological target: T4, Amyloid-beta precursor protein; assay: Inhibition of self-induced amyloid beta (1 to 42) (unknown origin) aggregation at 10 uM relative to control
Acetylcholinesterase [18] = biological target: T2, Acetylcholinesterase; assay: Inhibition of AChE (unknown origin) relative to control; details: concentration not given here
Beta-secretase 1 [19] = biological target: T5, Beta-secretase 1 (Homo sapiens, UniProt P56817); assay: Inhibition of BACE-1 (unknown origin) relative to control; details: concentration not given here
T5 sequence (P56817 whole entry): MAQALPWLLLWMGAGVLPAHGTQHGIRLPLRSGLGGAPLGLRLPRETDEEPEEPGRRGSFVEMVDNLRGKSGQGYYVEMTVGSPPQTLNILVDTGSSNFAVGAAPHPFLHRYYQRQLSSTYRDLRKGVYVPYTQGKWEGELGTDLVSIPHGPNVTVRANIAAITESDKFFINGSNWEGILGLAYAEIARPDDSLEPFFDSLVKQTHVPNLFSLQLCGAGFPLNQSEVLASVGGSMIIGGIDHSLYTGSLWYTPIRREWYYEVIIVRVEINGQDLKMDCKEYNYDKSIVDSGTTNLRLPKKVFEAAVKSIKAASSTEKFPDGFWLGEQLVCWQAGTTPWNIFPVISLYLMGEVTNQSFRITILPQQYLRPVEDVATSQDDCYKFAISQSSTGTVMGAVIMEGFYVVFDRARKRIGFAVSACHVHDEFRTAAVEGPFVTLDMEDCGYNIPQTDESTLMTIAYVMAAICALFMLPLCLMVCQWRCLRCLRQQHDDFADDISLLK

[20] = biological target: T4, Amyloid-beta precursor protein; assay: Inhibition of self-induced amyloid beta (unknown origin) aggregation at 3 uM relative to control
HT-22 = assay: Neuroprotective activity against glutamate-induced cell death in mouse HT-22 cells at 10 uM relative to control; format: functional
Beta-secretase 1 [21] = biological target: T5, Beta-secretase 1; assay: Inhibition of human BACE-1
[22] = biological target: Glycogen synthase kinase-3 beta (Homo sapiens) (UniProt P49841); assay: Non-competitive inhibition of GSK3-beta (unknown origin) assessed as inhibition of tau hyperphosphorylation at 100 ug/ml incubated for 1 hr in presence of ATP by ADP-Glo kinase assay relative to control; details: dose 100.0 µg/ml
Chain of Glycogen synthase kinase-3 beta (Homo sapiens) (P49841 whole entry, looked up): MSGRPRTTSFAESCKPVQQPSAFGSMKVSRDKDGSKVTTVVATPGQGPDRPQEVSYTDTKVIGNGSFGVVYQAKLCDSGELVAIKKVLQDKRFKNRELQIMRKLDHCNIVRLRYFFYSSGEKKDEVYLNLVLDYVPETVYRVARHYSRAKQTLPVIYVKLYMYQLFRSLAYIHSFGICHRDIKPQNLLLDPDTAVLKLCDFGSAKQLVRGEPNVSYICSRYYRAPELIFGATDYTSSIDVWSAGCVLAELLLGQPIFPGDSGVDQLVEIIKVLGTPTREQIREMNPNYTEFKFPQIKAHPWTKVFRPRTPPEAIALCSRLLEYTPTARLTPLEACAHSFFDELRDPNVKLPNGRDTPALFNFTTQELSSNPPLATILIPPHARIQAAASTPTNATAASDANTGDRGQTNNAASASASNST

[23] = biological target: T4, Amyloid-beta precursor protein; assay: Inhibition of self-induced amyloid beta (unknown origin) aggregation at 100 uM relative to control
Beta-secretase 1 [24] = biological target: T5, Beta-secretase 1; assay: Inhibition of human BACE-1 at 100 uM relative to control
Acetylcholinesterase [25] = biological target: T2, Acetylcholinesterase; assay: Inhibition of AChE (unknown origin) at 100 uM relative to control
[26] = biological target: T4, Amyloid-beta precursor protein; assay: Inhibition of self-induced amyloid beta (unknown origin) aggregation at 20 uM relative to control
Beta-secretase 1 [27] = biological target: T5, Beta-secretase 1; assay: Inhibition of human BACE-1 at 500 uM relative to control
Mus musculus [28] = assay: Antialzheimer activity in Tg2576 mouse model assessed as decrease in soluble amyloid beta level in brain homogenate at 20 mg/kg, ip administered daily for 30 days relative to control; format: functional; set-up: scale not given: the % may be the effect or the level left; details: time 30 day

SMILES: COc1ccc(/C=C2\COc3cc(OCCCCCN4CCCCC4)ccc3C2=O)cc1
- IC50 [1]: 0.65 µM

SMILES: CCN(CC)C(=O)Oc1ccc(-c2cc(=O)c3c(O)c(O)c(O)cc3o2)cc1
- IC50 (Acetylcholinesterase [2]): 1.2 µM
- IC50 (Cholinesterase [3]): 22.1 µM
- Activity [4]: 10.3

SMILES: COc1cc(O)c2c(=O)c(O)c(-c3ccc(O)c(O)c3)oc2c1 [RHAMNETIN]
- IC50 [5]: 2.3 µM

SMILES: Oc1cc(O)c2c(c1)O[C@H](c1ccc(O)c(O)c1)[C@H](O)C2 [(-)-EPICATECHIN]
- IC50 [6]: 5.3 µM

SMILES: CN(C)Cc1c(O)c(O)c(O)c2c(=O)cc(-c3ccccc3)oc12
- IC50 (Acetylcholinesterase [2]): 82 µM

SMILES: CCN(CC)CCCCOc1cc(O)c2c(=O)c(-c3ccc(O)cc3)coc2c1
- IC50 (Acetylcholinesterase [2]): 0.1 µM
- IC50 (Cholinesterase [3]): > 100 µM
- Activity (SH-SY5Y [7]): 75.7%

SMILES: COc1ccc(-c2cc(=O)c3ccc(OCCN4CCC(C)CC4)cc3o2)cc1
- IC50 (Acetylcholinesterase [2]): 0.00633 µM
- IC50 (Cholinesterase [3]): 0.0247 µM

SMILES: O=c1c(O)c(-c2ccc(O)c(O)c2)oc2cc(O)cc(O)c12 [QUERCETIN]
- IC50 [5]: 2.4 µM

SMILES: COc1ccc(-c2cc(=O)c3ccc(OCCN4CCN(CCO)CC4)cc3o2)cc1
- IC50 (Acetylcholinesterase [2]): 0.00756 µM
- IC50 (Cholinesterase [3]): 0.0216 µM

SMILES: COc1cc(O)c2c(=O)c3cccc(O)c3oc2c1
- IC50 [8]: 33 µM
- Ki (Acetylcholinesterase [9]): 53 µM

SMILES: O=c1cc(-c2ccc(O)cc2)oc2cc(O)cc(O)c12 [APIGENIN]
- Activity (Mus musculus [10]): 20%

SMILES: CNC(=O)Oc1cccc(CN(C)CCCCCCCOc2cccc(-c3cc(=O)c4ccccc4o3)c2)c1
- IC50 (Acetylcholinesterase [11]): 0.00052 µM
- IC50 (Cholinesterase [12]): 0.0637 µM
- inhibition [13]: 17.2%

SMILES: Cc1ccc(NCC[C@@H]2CCCN3CCCC[C@H]23)c2c(=O)c3ccccc3sc12
- IC50 (Acetylcholinesterase [2]): 5.2 µM
- IC50 (Cholinesterase [3]): 0.46 µM
- IC50 [14]: 0.84 µM

SMILES: COc1cc(-c2oc3cc(O)cc(O)c3c(=O)c2O)ccc1O [ISORHAMNETIN]
- Activity (SH-SY5Y [15]): 64%

SMILES: COc1ccc(/C=C2\COc3cc(OCCN4CCCCC4)ccc3C2=O)cc1
- IC50 [1]: 25 µM

SMILES: CCN(CC)CCOc1ccc2c(=O)cc(-c3ccc(OC)cc3)oc2c1
- IC50 (Acetylcholinesterase [2]): 0.0271 µM
- IC50 (Cholinesterase [3]): 0.0491 µM

SMILES: CN(C)CCNC(=O)COc1cc(O)c2c(=O)c(-c3ccc(O)cc3)coc2c1.Cl
- IC50 (Acetylcholinesterase [2]): 2.75 µM
- inhibition (Cholinesterase [16]): 26%
- Activity (HepG2): 1.53%

SMILES: O=c1c(O)c(-c2cc(O)c(O)c(O)c2)oc2cc(O)cc(O)c12
- inhibition [17]: 65.2%

SMILES: COc1ccc(-c2cc(=O)c3ccc(OCCN4CCCC4)cc3o2)cc1
- IC50 (Acetylcholinesterase [2]): 0.105 µM
- IC50 (Cholinesterase [3]): 0.0695 µM

SMILES: COc1c(O)cc2oc3cc(O)c(CC=C(C)C)c(O)c3c(=O)c2c1CCC(C)(C)O [GARCINONE D]
- inhibition (Cholinesterase [16]): 15%
- inhibition (Acetylcholinesterase [18]): 12.9%
- inhibition (Beta-secretase 1 [19]): 62.7%
- inhibition [20]: 34.9%
- Activity (HT-22): 45.4%

SMILES: O=C(O[C@H]1Cc2c(O)cc(O)cc2O[C@H]1c1ccc(O)c(O)c1)c1cc(O)c(O)c(O)c1
- IC50 (Beta-secretase 1 [21]): 2.4 µM
- IC50 [6]: 3 µM

SMILES: O=c1cc(-c2ccc(O)c(O)c2)oc2cc(O)c([C@@H]3O[C@H](CO)[C@@H](O)[C@H](O)[C@H]3O)c(O)c12
- inhibition [22]: 48.4%

SMILES: CCC(=O)CNC(=O)Nc1nc2ccc(-c3oc4c(OC)c(O)c(O)c(OC)c4c(=O)c3O)cc2s1
- IC50 (Acetylcholinesterase [2]): 0.1 µM
- IC50 (Cholinesterase [3]): 0.00032 µM
- IC50 (Beta-secretase 1 [21]): 2.1 µM

SMILES: COc1cc2oc3cccc(O)c3c(=O)c2c(O)c1CN(C)C
- IC50 (Acetylcholinesterase [2]): 100 µM

SMILES: O=C(O[C@@H]1Cc2c(O)cc(O)cc2O[C@@H]1c1cc(O)c(O)c(O)c1)c1cc(O)c(O)c(O)c1 [EPIGALOCATECHIN GALLATE]
- IC50 [6]: 0.18 µM

SMILES: COc1cc(-c2cc(=O)c3c(O)c([C@@H]4O[C@H](CO)[C@@H](O)[C@H](O)[C@H]4O)c(O)cc3o2)ccc1O
- inhibition [22]: 41.5%

SMILES: COc1cc2c(cc1CC=C(C)C)C(=O)C[C@@H](c1ccc(O)cc1)O2
- inhibition [23]: 57%
- inhibition (Beta-secretase 1 [24]): 21%
- inhibition (Acetylcholinesterase [25]): 81%

SMILES: C[C@@H]1O[C@@H](OC[C@H]2O[C@@H](Oc3cc(O)c4c(c3)O[C@H](c3ccc(O)cc3)CC4=O)[C@H](O)[C@@H](O)[C@@H]2O)[C@H](O)[C@H](O)[C@H]1O
- inhibition [26]: 53%
- inhibition (Beta-secretase 1 [27]): 79.3%

SMILES: COc1ccc(-c2cc(=O)c3ccc(OCCN4CCOCC4)cc3o2)cc1
- IC50 (Acetylcholinesterase [2]): 0.011 µM
- IC50 (Cholinesterase [3]): 0.0543 µM

SMILES: O=c1c(O)c(-c2ccc(O)cc2O)oc2cc(O)cc(O)c12 [MORIN]
- IC50 [5]: 7.4 µM

SMILES: CC(C)=CCc1cc2c(cc1O)O[C@@H](c1ccc(O)cc1)CC2=O
- inhibition [23]: 19%
- inhibition (Beta-secretase 1 [24]): 17%
- inhibition (Acetylcholinesterase [25]): 34%

SMILES: COc1ccc(/C=C2\COc3cc(OCCCN4CCCCC4)ccc3C2=O)cc1
- IC50 (Acetylcholinesterase [2]): 3.94 µM
- IC50 (Cholinesterase [3]): 9.21 µM
- IC50 [1]: 3.44 µM

SMILES: Cc1ccc(NCC[C@@H]2CCCN3CCCC[C@H]23)c2c(=O)c3ccccc3oc12
- IC50 (Acetylcholinesterase [2]): 0.14 µM
- IC50 (Cholinesterase [3]): 0.37 µM
- IC50 [14]: 13 µM

SMILES: O=c1c(O)c(-c2ccc(O)c(O)c2)oc2cc(O)ccc12 [FISETIN]
- IC50 [5]: 12.5 µM

SMILES: O=c1cc(-c2ccc(O)c(O)c2)oc2cc(O)cc(O)c12 [LUTEOLIN]
- Activity (Mus musculus [28]): 49%
